Non-standard residues stand in square brackets, D forms with d. No end group written: not given here.
Tests used:
rat TCR = assay: Co-immunoprecipitation of fluorescence-labeled peptides with TCR molecules; format: binding; details: Rho-labeled peptides, activated A2b T cells
Method: Activated A2b T cells (2×10^6) were cultured for 1 hr at 37° C. in the presence of CP or 2D-CP (25 μg/ml), or 2G-CP, and lysed for 15 min on ice in 0.1 ml lysis buffer (Adachi et al., 1996). Insoluble material was removed by centrifugation at 10.000 g for 10 min at 4° C. The lysate was then incubated overnight with Protein A-plus Agarose beads (Santa Cruz Biotechnology Inc., Santa Cruz, Calif., USA) bound to antibodies to the rat TCR or MHC class 1. The antibodies reactive against the rat TCR (clone R73) or HSP60 (clone LKI) were purified from the respective hybridomas at our lab; antibodies to rat CD28, actin and the rat MHC class 1 were purchased from Serotec (Oxford, UK). After an overnight incubation at 4° C., the beads were washed with lysis buffer, boiled for 10 minutes and the protein supernatant run in a 4-20% SDS-PAGE. The presence of co-immunoprecipitated peptide was detected by the Typhoon 9400 variable mode imager.
Next, co-immunoprecipitation experiments were performed. The affinity of the TCR/CP, the TCR/2D-CP and TCR/2G-CP interactions were compared by performing a series of co-precipitation experiments using different concentrations of Rho-labeled CP, 2D-CP and 2G-CP peptides.

LNC from Mt primed rats = assay: T-cell proliferation of LNC from Mt-immunized rats activated with PPD or Mt176-90 (Part A); format: cell-based, rat
Lewis rats [1] = assay: Adjuvant arthritis (AA) in Lewis rats (Part A); format: in vivo, rat
Method: To test the effect of CP on T-cell activation in vivo, the experimental T-cell mediated autoimmune disease adjuvant arthritis (AA) was used. AA was induced by injecting 50 μl of Mt suspended in IFA (10 mg/ml) at the base of the tail. At the time of AA induction, each rat also received 100 μg of all-L CP, 2D-CP or 2G CP control peptide (or PBS) dissolved in 50 μl of IFA and mixed with Mt/IFA used to induce AA. The day of AA induction was designated as day 0. Disease severity was assessed by direct observation of all 4 limbs in each animal. A relative score between 0 and 4 was assigned to each limb, based on the degree of joint inflammation, redness and deformity; thus the maximum possible score for an individual animal was 16 (Quintana et al., 2002). The mean AA score (±SEM) is shown for each experimental group. Arthritis was also quantified by measuring hind limb diameter with a caliper. Measurements were taken on the day of the induction of AA and 26 days later (at the peak of AA); the results are presented as the mean±SEM of the difference between the two values for all the animals in each group. The person who scored the disease was blinded to the identity of the groups.
Next, the contribution of the secondary structure and the side-chains to the inhibitory effects of CP on T cell activation In vivo was analyzed, using the experimental autoimmune disease Adjuvant Arthritis (AA). Immunization of Lewis rats with Mt triggers AA, an autoimmune disease driven by Mt-specific T cells that cross-react with self-antigen (Holoshitz et al., 1984; Holoshitz et al., 1983). PPD and Mt176-90 are targeted by the arthritogenic T-cell response (Anderton et al., 1994); indeed immunomodulatory therapies that inhibit the progression of arthritis have been associated with a decreased T cell response to PPD and Mt176-90 and with a diminished delayed type hypersensitivity (DTH) response to PPD (van Eden et al., 1985).

Lewis rats [2] = assay: Delayed type hypersensitivity to PPD in AA rats (Part A); format: in vivo, rat; details: 16 days after AA induction, ear thickness 48 hr after PPD
Method: Twenty μl of PPD (0.5 mg/ml in PBS) were injected intradermally into the pinna of the right ear of each rat on day 16 after AA induction; 20 μl of sterile PBS were injected in the left ear as control. The thickness of the ear was measured 48 hr later using a vernier caliper and expressed as the difference between the right and the left ear (Quintana et al., 2005).

BALB/c mice = assay: Delayed type hypersensitivity to oxazalone in mice; format: in vivo, mouse
Method: Groups of 5 female inbred BALB/c mice (The Jackson Laboratory) were sensitized on the shaved abdominal skin with 100 μl of 2% Oxazalone dissolved in acetone/olive oil [4:1 (vol/vol)] applied topically. DTH sensitivity was elicited 5 days later by challenging the mice with 20 μl of 0.5% Oxazalone in acetone/olive oil, 10 μl administered topically to each side of the ear. A constant area of the ear was measured immediately before challenge and 24 h after challenge with a Mitutoyo engineer's micrometer. The individual measuring ear swelling was unaware of the identity of the groups of mice. The DTH reaction is presented as the increment of ear swelling after challenge expressed as the mean±SEM in units of 10-2 mm. One hour after the challenge the mice's ears were treated topically with either all-L CP or with 2D-CP, both dissolved in 40 μl DMSO. The activity of the peptide treatments was compared to treatment with DMSO alone for “untreated mice” and Dexamethasone (100 μg/ml in saline) as a positive control.
To test whether TCR trans-membrane peptides could inhibit the elicitation of existing DTH reactivity, groups of naïve BALB/c mice were sensitized to 2% oxazalone. Five days later, the mice were challenged with 0.5% oxazalone administered to the ear. An hour after the challenge, the mice were treated with Dimethylsulfoxide (DMSO), all-L CP 150 μg (6 mg/kg) in DMSO, 2D-CP 150 μg (6 mg/kg) in DMSO, or dexamethasone, applied topically. On the following day, ear thickness was measured the swelling of DMSO treated mice (0.33±0.01 mm) was compared to that of mice treated with all-L CP (0.30±0.01 mm), 2D-CP (0.27±0.01 mm) and Dexamethasone (0.15±0.02 mm). […] Thus, 2D-CP can inhibit a T-cell mediated immune reaction in subjects already sensitized to the antigen.

target cells = assay: Cytotoxic effect on the target cells (Part A); details: incubated with the target cells

## GLRILLLKV [2D-CP] (GL[dR]ILLL[dK]V-NH2; also: rhodamine label, position not given here)
Rat TCR
  Co-precipitation with the TCR: can be co-precipitated with the TCR
LNC from Mt primed rats; LNC, 72 hr, 3H-thymidine incorporation
  Inhibition of T-cell proliferation to PPD and to Mt176-90: inhibited T-cell proliferation to PPD and to Mt176-90 in a dose-dependent manner
LNC from Mt primed rats; at lower concentrations, p<0.02 (FIG. 3B)
  Inhibition of T-cell proliferation compared with all-L CP: somewhat greater
Lewis rats [1]; 100 μg peptide per rat at AA induction, maximum possible score 16
  Mean maximum AA score: 6.6±0.7
Lewis rats [1]; 100 μg peptide per rat with Mt at the time of AA induction
  Effect on adjuvant arthritis (clinical score and paw swelling): significantly milder arthritis
Lewis rats [1]; dose increased to 900 μg per rat
  Further decrease in the AA score: 25%
Lewis rats [1]; dose increased to 900 μg per rat, day 26
  Improvement in paw swelling: 50%
Lewis rats [2]
  Reduction in the DTH response to PPD: 51%
BALB/c mice; 150 μg (6 mg/kg) topical in DMSO
  Reduction in ear swelling compared with all-L CP: twice the reduction
BALB/c mice; topical treatment 1 hr after oxazalone challenge, peptides 150 μg (6 mg/kg) in DMSO, measured following day
  Ear swelling: 0.27±0.01 mm
Target cells
  Cytotoxic effect: None of the peptides (all-L CP, 2D-CP or 2G CP) had a cytotoxic effect
